Data on 9 compounds can be found in ChEMBL document CHEMBL1147047, “Design of protein membrane interaction inhibitors by virtual ligand screening, proof of concept with the C2 domain of factor V” (Proc Natl Acad Sci U S A, 2007).

The source made the active and inactive calls. The calls are words filed in the database; no cut-off is given here. A value given as a limit tells only on which side of the number the result lay.

One assay addresses Coagulation factor VIII (Homo sapiens, UniProt P00451). Briefly: Inhibition of human factor 8 binding to immobilized phospholipid by surface plasmon resonance assay.
The target of assay [1] is Coagulation factor X (Homo sapiens) (UniProt P00742). As to the kind of experiment: Inhibition of factor 10a in human plasma. The class given is cell-free.
Chain of Coagulation factor X (Homo sapiens) (P00742 41-179 limits assumed): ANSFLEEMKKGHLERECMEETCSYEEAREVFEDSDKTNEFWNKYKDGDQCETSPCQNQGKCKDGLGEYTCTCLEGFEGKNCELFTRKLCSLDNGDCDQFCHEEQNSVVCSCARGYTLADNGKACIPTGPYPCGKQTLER
Chain of Coagulation factor X (Homo sapiens) (P00742 235-488 limits assumed): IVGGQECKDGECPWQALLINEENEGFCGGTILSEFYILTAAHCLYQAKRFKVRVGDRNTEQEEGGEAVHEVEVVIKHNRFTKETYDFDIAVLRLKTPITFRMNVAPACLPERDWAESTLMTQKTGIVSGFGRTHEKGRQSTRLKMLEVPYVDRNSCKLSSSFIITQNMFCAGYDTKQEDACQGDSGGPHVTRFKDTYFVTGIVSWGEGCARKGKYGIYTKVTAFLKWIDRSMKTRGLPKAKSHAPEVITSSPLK
The target of assay [2] is T1, Coagulation factor V (Homo sapiens, UniProt P12259). As to the kind of experiment: Inhibition of human recombinant factor 5a C2 domain binding to immobilized phospholipid by surface plasmon resonance assay.
T1 sequence (P12259 29-737 limits assumed): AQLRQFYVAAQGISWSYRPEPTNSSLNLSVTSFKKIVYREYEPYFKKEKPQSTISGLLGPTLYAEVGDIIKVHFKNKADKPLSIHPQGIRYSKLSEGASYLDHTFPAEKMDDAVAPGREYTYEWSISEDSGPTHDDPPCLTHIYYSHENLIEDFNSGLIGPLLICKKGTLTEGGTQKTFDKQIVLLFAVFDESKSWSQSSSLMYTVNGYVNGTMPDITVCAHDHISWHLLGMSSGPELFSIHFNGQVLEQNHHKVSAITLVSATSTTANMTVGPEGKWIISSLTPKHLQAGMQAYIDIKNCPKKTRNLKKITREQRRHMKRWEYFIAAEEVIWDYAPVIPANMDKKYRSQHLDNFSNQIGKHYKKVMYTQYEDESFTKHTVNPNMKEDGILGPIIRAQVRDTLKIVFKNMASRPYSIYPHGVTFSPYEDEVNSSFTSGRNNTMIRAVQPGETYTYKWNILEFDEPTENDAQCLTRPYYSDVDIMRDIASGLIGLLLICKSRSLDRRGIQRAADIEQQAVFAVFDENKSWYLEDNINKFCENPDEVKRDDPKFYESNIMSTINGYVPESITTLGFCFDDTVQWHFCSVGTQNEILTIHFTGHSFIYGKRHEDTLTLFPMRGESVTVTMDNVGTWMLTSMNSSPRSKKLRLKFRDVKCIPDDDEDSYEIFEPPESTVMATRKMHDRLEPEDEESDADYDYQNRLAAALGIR
T1 sequence (P12259 1574-2224 limits assumed): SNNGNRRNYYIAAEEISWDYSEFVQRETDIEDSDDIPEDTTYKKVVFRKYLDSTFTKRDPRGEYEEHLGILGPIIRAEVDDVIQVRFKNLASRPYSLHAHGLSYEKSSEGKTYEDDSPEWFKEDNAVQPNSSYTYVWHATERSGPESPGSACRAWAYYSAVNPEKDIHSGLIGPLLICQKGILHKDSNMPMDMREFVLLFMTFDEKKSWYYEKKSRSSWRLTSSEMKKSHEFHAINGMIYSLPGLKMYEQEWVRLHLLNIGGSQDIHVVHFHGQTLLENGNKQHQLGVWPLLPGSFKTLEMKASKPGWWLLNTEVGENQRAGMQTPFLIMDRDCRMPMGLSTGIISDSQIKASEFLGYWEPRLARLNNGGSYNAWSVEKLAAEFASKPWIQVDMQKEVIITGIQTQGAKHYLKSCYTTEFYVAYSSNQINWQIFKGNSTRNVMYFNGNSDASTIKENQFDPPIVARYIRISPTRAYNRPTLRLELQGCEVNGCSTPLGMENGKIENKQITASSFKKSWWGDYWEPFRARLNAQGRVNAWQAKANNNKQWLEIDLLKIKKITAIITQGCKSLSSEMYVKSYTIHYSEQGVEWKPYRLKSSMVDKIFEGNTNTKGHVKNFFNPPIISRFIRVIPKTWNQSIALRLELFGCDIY
Assay [3] has as its target T1, Coagulation factor V. As to the kind of experiment: Inhibition of human factor 5a light chain binding to immobilized phospholipid by surface plasmon resonance assay. In general terms: Surface plasmon resonance follows binding to a sensor surface in real time, without labels.
In assay [4] the target is T1, Coagulation factor V. Briefly: Inhibition of factor 5a-mediated prothrombin activation in human plasma at 100 uM by prothrombinase assay.
The target of assay [5] is Prothrombin (Homo sapiens) (UniProt P00734). As to the kind of experiment: Inhibition of calcium-dependent membrane binding activity of prothrombin.
Assay [6] concerns the target T1, Coagulation factor V. Briefly: Inhibition of factor 5a-mediated prothrombin activation in human plasma by prothrombinase assay. The class given is cell-free.
Assay [7] has as its target Coagulation factor X (Homo sapiens) (UniProt P00742). Briefly: Inhibition of calcium-dependent membrane binding activity of factor 10a.
Assay [8] deals with T1, Coagulation factor V. As to the kind of experiment: Inhibition of factor 5a-mediated prothrombin activation in human plasma at 50 uM in presence of 40 mg/ml albumin. The class given is cell-free. More on the design: scale not given: the % may be the effect or the level left.

Chain of Coagulation factor VIII (P00451 20-759 limits assumed): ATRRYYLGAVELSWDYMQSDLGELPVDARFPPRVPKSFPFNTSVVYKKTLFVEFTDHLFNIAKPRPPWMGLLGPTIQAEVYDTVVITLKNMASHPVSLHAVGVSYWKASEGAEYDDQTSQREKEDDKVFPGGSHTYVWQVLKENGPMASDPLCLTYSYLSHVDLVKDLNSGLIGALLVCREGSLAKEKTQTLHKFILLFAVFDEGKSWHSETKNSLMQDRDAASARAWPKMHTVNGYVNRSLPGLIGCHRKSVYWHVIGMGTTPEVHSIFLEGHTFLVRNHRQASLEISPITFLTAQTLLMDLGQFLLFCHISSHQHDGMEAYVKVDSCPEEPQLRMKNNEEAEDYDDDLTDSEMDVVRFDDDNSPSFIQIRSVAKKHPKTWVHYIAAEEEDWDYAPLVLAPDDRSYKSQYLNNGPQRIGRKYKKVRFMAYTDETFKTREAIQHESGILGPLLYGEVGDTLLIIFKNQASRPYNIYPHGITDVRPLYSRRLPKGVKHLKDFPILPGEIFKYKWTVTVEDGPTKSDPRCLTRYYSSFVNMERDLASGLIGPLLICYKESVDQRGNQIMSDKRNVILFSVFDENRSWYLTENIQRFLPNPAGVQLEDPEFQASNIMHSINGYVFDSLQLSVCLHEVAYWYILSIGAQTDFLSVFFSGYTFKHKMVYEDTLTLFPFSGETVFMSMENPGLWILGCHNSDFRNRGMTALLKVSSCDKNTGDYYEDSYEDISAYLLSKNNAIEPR
Chain of Coagulation factor VIII (P00451 1668-2351 limits assumed): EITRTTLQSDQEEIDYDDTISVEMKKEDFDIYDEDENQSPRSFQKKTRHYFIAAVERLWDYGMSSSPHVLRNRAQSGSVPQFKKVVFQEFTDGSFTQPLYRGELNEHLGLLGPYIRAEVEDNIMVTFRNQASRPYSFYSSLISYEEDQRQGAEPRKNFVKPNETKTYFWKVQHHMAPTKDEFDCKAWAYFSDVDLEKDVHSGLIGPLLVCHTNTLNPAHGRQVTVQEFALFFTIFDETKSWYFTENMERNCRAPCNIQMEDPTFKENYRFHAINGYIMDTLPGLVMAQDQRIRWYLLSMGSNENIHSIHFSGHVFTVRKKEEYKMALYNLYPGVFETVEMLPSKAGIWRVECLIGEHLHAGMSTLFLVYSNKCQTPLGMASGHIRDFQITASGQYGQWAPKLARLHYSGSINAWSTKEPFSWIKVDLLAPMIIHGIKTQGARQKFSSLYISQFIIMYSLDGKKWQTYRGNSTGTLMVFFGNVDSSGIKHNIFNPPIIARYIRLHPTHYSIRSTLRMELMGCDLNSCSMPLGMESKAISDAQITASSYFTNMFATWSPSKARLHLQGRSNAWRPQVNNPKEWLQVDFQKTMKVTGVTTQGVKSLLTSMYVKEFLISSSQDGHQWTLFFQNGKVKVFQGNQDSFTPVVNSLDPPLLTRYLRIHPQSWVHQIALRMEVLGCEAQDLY

In the case of `O=C1NC(=O)N(c2ccccc2F)C(=O)/C1=C\c1cc(Cl)ccc1OCc1ccc([N+](=O)[O-])cc1`, the IC50 (in general, the concentration needed to halve the response being measured) came out at 8.9 µM at Coagulation factor VIII, 21.9 µM on Coagulation factor V [2], 14.1 µM at Coagulation factor V [3] and 38 µM against Coagulation factor V [6]. Further, the result in [1] and in [5] was inactive. Besides, the inhibition (as a rule, the relative decrease from the control value, in per cent) at Coagulation factor V [4] was greater than 99%.
Regarding `CC(C)NC[C@@H](O)Cn1c2c(c3ccccc31)CCc1c-2cnn1-c1ccccc1`, the outcome in assay [1] and in assay [7] was inactive. The compound further came in with an inhibition against Coagulation factor V [4] greater than 99%. Half-maximal inhibition at Coagulation factor V [6] (IC50) required 3.8 µM.
Turning to `Cc1cc(-c2ccc(/C=C3/C(=O)NN(c4cccc(Cl)c4)C3=O)o2)c([N+](=O)[O-])cc1C`, the result in [1], in assay [5] and in assay [7] was inactive. The IC50 at Coagulation factor V [2] turned out to be 7.4 µM; on Coagulation factor V [3], 8.55 µM; at Coagulation factor V [6], 8.95 µM. Further, the inhibition on Coagulation factor V [4] was greater than 99%.
On to `COc1cc([N+](=O)[O-])ccc1-c1ccc(/C=C2\C(=O)NC(=O)N(c3ccc4c(c3)OCO4)C2=O)o1`, for which the outcome in [1], in assay [5] and in assay [7] was inactive. Besides, the IC50 on Coagulation factor V [2] stood at 5.53 µM; at Coagulation factor V [3] it was 4.8 µM; against Coagulation factor V [6], 62.9 µM. At Coagulation factor V [4], this compound yielded an inhibition greater than 99%.
`O=C(COc1ccc(Cl)cc1Cl)Nc1ccc(C(=O)Nc2ccccc2C(=O)O)cc1`: the result in assay [1], in [5] and in assay [7] was inactive. Also, the half-maximal inhibitory concentration (IC50) at Coagulation factor V [2] stood at 16.4 µM; on Coagulation factor V [3], 14.1 µM; against Coagulation factor V [6], 40.6 µM. Further, the inhibition against Coagulation factor V [4] is greater than 99%.
Take `CCOc1cc(/C=C2/NC(=O)N(Cc3ccccc3F)C2=O)ccc1OCc1ccc(C(=O)O)cc1`: the outcome in [1], in assay [5] and in [7] was inactive. The values for the IC50 at Coagulation factor V [2], at Coagulation factor V [3] and against Coagulation factor V [6] were 3.51 µM, 2.5 µM and 18.6 µM, respectively. For the same compound, the inhibition on Coagulation factor V [4] was greater than 99%. The Activity at Coagulation factor V [8] is 25%.
For the compound `CC1=NN(c2cccc(C(=O)O)c2)C(=O)/C1=C\c1ccc(-c2ccc([N+](=O)[O-])cc2)o1`, the result in [1], in [5] and in [7] was inactive. Further, the half-maximal inhibitory concentration (IC50) at Coagulation factor V [2] came out at 6.71 µM; on Coagulation factor V [3] it was 8.56 µM; on Coagulation factor V [6], 9.19 µM. At Coagulation factor V [4], this compound gave an inhibition greater than 99%.
In the case of `CC1=NN(c2ccc(Br)cc2)C(=O)/C1=C/c1ccc(-c2cccc(C(=O)O)c2)o1`, the outcome in assay [1] and in assay [7] was inactive. At Coagulation factor V [4], this compound showed an inhibition greater than 99%. The IC50 on Coagulation factor V [6] was found to be 1.81 µM.
Take `N=c1n(CCN2CCCCC2)c2ccccc2n1CC(O)COc1ccc(Cl)cc1Cl` (single isomer, unassigned): the half-maximal inhibitory concentration (IC50) on Coagulation factor VIII was 7.8 µM; at Coagulation factor V [2], 14 µM; on Coagulation factor V [3] it was 15.7 µM; on Coagulation factor V [6] it was 32.4 µM. For the same compound, the result in assay [1] and in assay [5] was inactive. Moreover, at Coagulation factor V [4], the inhibition was greater than 99%.
